Data as given in US11352350B2, “IRAK degraders and uses thereof” (Kymera Therapeutics, Inc., priority 2018, dated 2022).
Like-named read-outs stand apart in the source and are kept apart here.

Legend:
IRAK4 = IRAK4 (Homo sapiens (Human), UniProt Q9NWZ3); assay: IRAK4 MSD degradation in OCI-LY10; format: cell-based; settings: MSD
Method in brief: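 OCI-LY10 cells treated with 8-point 1:3 dilutions (top 1 to 10 μM final) for 4 to 24 h at 37° C. Lysate IRAK4 measured by MSD sandwich immunoassay (2H9 capture, Y279 detection, SULFO-TAG anti-rabbit). DC50 from three-parameter logistic fit.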

OCI-LY10 = assay: CTG Cell Viability Assay - OCI-LY10; format: cell-based, human; settings: Homo sapiens, OCI-Ly10, 96 h, OCI-LY10, 4 days; read-out: CTG Cell Viability Assay - OCI-LY10: Average external-IC50
Method in brief: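 OCI-LY10 cells exposed to 9-dose, 1:3 dilutions from 10 μM top (0.2% DMSO) for 4 days at 37° C, 5% CO2. Viability by CellTiter-Glo luminescence; IC50 from three-parameter logistic fit.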

[1] = OCI-LY10, 4 hrs, read-out: IRAK4 MSD degradation in OCI-LY10 at 4 hrs: Average external-Abs DC50
[2] = OCI-LY10, 24 hrs, read-out: IRAK4 MSD degradation in OCI-LY10 at 24 hrs: Average external-Abs DC50

IRAK4, sequence (Q9NWZ3 whole entry): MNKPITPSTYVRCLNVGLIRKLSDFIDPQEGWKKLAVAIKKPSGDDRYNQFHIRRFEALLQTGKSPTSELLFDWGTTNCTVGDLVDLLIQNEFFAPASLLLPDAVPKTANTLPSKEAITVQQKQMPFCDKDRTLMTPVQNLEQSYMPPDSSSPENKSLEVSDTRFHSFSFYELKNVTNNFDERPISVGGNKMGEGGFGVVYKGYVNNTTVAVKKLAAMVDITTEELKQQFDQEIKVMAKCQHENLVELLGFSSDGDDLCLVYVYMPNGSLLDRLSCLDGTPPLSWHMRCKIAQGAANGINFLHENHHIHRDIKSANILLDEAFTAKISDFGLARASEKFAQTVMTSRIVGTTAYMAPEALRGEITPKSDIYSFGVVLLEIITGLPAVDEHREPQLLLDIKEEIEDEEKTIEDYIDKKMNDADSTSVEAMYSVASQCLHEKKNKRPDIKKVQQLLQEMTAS

Row | SMILES | DC50 (IRAK4; [1]) [nM] | IC50 (OCI-LY10) [nM] | DC50 (IRAK4; [2]) [nM]
1 | C=C(C)c1nn([C@H]2CC[C@H](CN3CCC(OCCCc4cccc5c4n(C)c(=O)n5C4CCC(=O)NC4=O)CC3)CC2)cc1NC(=O)c1cnn2ccc(NCC3CC3)nc12 (stereo partly shown) [I-172] | 100 to 1000 | > 1000 | 
2 | C=C(C)c1nn([C@H]2CC[C@H](CN(C)C3CCN(Cc4cccc5c4n(C)c(=O)n5C4CCC(=O)NC4=O)CC3)CC2)cc1NC(=O)c1cnn2ccc(NCC3CC3)nc12 (stereo partly shown) [I-173] | 100 to 1000 | > 1000 | 
3 | CN(CCOCCOCCOC12CC3CC(CC(C3)C1)C2)C[C@H]1CC[C@H](n2cc(NC(=O)c3coc(-c4ccnc(NCC5CC5)c4)n3)c(C(F)F)n2)CC1 [I-174] | > 1000 | > 1000 | > 1000
4 | CN(CCOCCOCCOC12CC3CC(CC(C3)C1)C2)C[C@H]1CC[C@H](n2cc(NC(=O)c3cnn4ccc(N5CCNCC5)nc34)c(C(F)F)n2)CC1 [I-175] | > 1000 | > 1000 | > 1000
5 | Cn1c(=O)n(C2CCC(=O)NC2=O)c2ccc(CCCOC3CCN(C[C@H]4CC[C@H](n5cc(NC(=O)c6cnn7ccc(N8CCOCC8)nc67)c(C(F)F)n5)CC4)CC3)cc21 (stereo partly shown) [I-176] | 10 to 100 | > 1000 | 
6 | Cn1c(=O)n(C2CCC(=O)NC2=O)c2cccc(CN3CCC(CCN4CCC(n5cc(NC(=O)c6cnn7ccc(N8CCOCC8)nc67)c(C(F)F)n5)CC4)CC3)c21 (stereo not shown) [I-177] | < 10 | 100 to 500 | 
7 | Cn1c(=N)n(C2CCC(=O)NC2=O)c2ccc(CCCOCCCN3CCC(n4cc(NC(=O)c5cnn6ccc(N7CCOCC7)nc56)c(C(F)F)n4)CC3)cc21 (stereo not shown) [I-179] | 100 to 1000 | > 1000 | 
8 | Cn1c(=O)n(C2CCC(=O)NC2=O)c2cccc(CCCOCCCN3CCC(n4cc(NC(=O)c5cnn6ccc(N7CCNCC7)nc56)c(C(F)F)n4)CC3)c21 (stereo not shown) [I-180] | 10 to 100 | > 1000 | 
9 | Cn1c(=O)n(C2CCC(=O)NC2=O)c2ccc(CN3CCC(CCN4CCC(n5cc(NC(=O)c6coc(-c7ccnc(NCC8CC8)c7)n6)c(C(F)F)n5)CC4)CC3)cc21 (stereo not shown) [I-181] | 100 to 1000 | 100 to 500 | 
10 | Cn1c(=O)n(C2CCC(=O)NC2=O)c2ccc(CN3CCC(CN4CCC(n5cc(NC(=O)c6coc(-c7ccnc(NCC8CC8)c7)n6)c(C(F)F)n5)CC4)CC3)cc21 (stereo not shown) [I-182] | 100 to 1000 | > 1000 | 
11 | Cn1c(=O)n(C2CCC(=O)NC2=O)c2cccc(CCN3CC4(CCN(C[C@H]5CC[C@H](n6cc(NC(=O)c7cnn8ccc(N9CCOCC9)nc78)c(C(F)F)n6)CC5)CC4)C3)c21 (stereo partly shown) [I-183] | < 10 | < 50 | < 10
12 | CC[C@H]1C(COc2ncc(C#CC3CCC(CN(C)CCCOCCCc4cccc5c4n(C)c(=O)n5C4CCC(=O)NC4=O)CC3)c3cc(C(N)=O)c(OC)cc23)NC(=O)[C@H]1F (stereo partly shown) [I-184] | 10 to 100 | > 1000 | 10 to 100
13 | CC[C@@H]1[C@H](F)C(=O)N[C@@H]1COc1ncc(C#C[C@H]2CC[C@H](CN3CCC(OCCCc4cccc5c4n(C)c(=O)n5C4CCC(=O)NC4=O)CC3)CC2)c2cc(C(N)=O)c(OC)cc12 (stereo partly shown) [I-186] | 10 to 100 | > 1000 | < 10
14 | CC[C@@H]1[C@H](F)C(=O)N[C@@H]1COc1ncc(C#C[C@H]2CC[C@H](CN3CCC(OCCCc4ccc5c(c4)n(C)c(=O)n5C4CCC(=O)NC4=O)CC3)CC2)c2cc(C(N)=O)c(OC)cc12 (stereo partly shown) [I-187] | > 1000 | > 1000 | < 10
15 | CC[C@@H]1[C@H](F)C(=O)N[C@@H]1COc1ccc(-c2ncn(CN(C)CCCOCCCc3cccc4c3n(C)c(=O)n4C3CCC(=O)NC3=O)n2)c2cc(C(N)=O)c(OC)cc12 (stereo partly shown) [I-188] | 100 to 1000 | > 1000 | 100 to 1000
16 | CC[C@@H]1[C@H](F)C(=O)N[C@@H]1COc1ncc(C#C[C@H]2CC[C@H](CN(C)C3CCN(Cc4cccc5c4n(C)c(=O)n5C4CCC(=O)NC4=O)CC3)CC2)c2cc(C(N)=O)c(OC)cc12 (stereo partly shown) [I-189] | 10 to 100 | > 1000 | < 10
17 | CC[C@@H]1[C@H](F)C(=O)N[C@@H]1COc1ncc(C#C[C@H]2CC[C@H](CN(C)C3CCN(Cc4ccc5c(c4)n(C)c(=O)n5C4CCC(=O)NC4=O)CC3)CC2)c2cc(C(N)=O)c(OC)cc12 (stereo partly shown) [I-190] | 100 to 1000 | > 1000 | 10 to 100

Row | SMILES | DC50 (IRAK4; [1]) [nM] | IC50 (OCI-LY10) [nM] | DC50 (IRAK4; [2]) [nM]
18 | O=C1CCC(n2c3ccccc3c3c(CCCOC4CCN(C[C@H]5CC[C@H](n6cc(NC(=O)c7cnn8ccc(N9CCOCC9)nc78)c(C(F)F)n6)CC5)CC4)ccnc32)C(=O)N1 (stereo partly shown) [I-192] | 10 to 100 | > 1000 | 
19 | CC[C@@H]1[C@H](F)C(=O)N[C@@H]1COc1ncc(C#CC2CCN(CCCC3CCN(Cc4ccc5c(c4)n(C)c(=O)n5C4CCC(=O)NC4=O)CC3)CC2)c2cc(C(N)=O)c(OC)cc12 (stereo partly shown) [I-193] | 100 to 1000 | > 1000 | 10 to 100
20 | CC[C@@H]1[C@H](F)C(=O)N[C@@H]1COc1ncc(C#CC2CCN(CC3CCN(Cc4cccc5c4n(C)c(=O)n5C4CCC(=O)NC4=O)CC3)CC2)c2cc(C(N)=O)c(OC)cc12 (stereo partly shown) [I-194] | 10 to 100 | > 1000 | 
21 | CN1C(=O)CCC(n2c(=O)n(C)c3c(CCCOC4CCN(C[C@H]5CC[C@H](n6cc(NC(=O)c7cnn8ccc(N9CCOCC9)nc78)c(C(F)F)n6)CC5)CC4)cccc32)C1=O (stereo partly shown) [I-195] | 100 to 1000 | > 1000 | 
22 | O=C1CCC(n2c3cccc(CCCOC4CCN(C[C@H]5CC[C@H](n6cc(NC(=O)c7cnn8ccc(N9CCOCC9)nc78)c(C(F)F)n6)CC5)CC4)c3c3cccnc32)C(=O)N1 (stereo partly shown) [I-196] | 10 to 100 | > 1000 | 
23 | O=C1CCC(N2C[C@@H](c3ccc(C#CCCOC4CCN(C[C@H]5CC[C@H](n6cc(NC(=O)C7CNN8C=CC(N9CCOCC9)=NC78)c(C(F)F)n6)CC5)CC4)cc3)OC2=O)C(=O)N1 (stereo partly shown) [I-197] | 10 to 100 | > 1000 | 
24 | Cn1c(=O)n(C2CCC(=O)NC2=O)c2cccc(CCCOCC3CCN(C[C@H]4CC[C@H](n5cc(NC(=O)c6cnn7ccc(N8CCOCC8)nc67)c(C(F)F)n5)CC4)CC3)c21 (stereo partly shown) [I-198] | < 10 | > 1000 | 
25 | Cn1c(=O)n(C2CCC(=O)NC2=O)c2cccc(C3CCN(C[C@H]4CC[C@H](n5cc(NC(=O)c6cnn7ccc(N8CCOCC8)nc67)c(C(F)F)n5)CC4)CC3)c21 (stereo partly shown) [I-199] | 100 to 1000 | > 1000 | 
26 | Cn1c(=O)n(C2CCC(=O)NC2=O)c2cccc(CCCO[C@H]3CC[C@H](CN4CCC(n5cc(NC(=O)c6cnn7ccc(N8CCOCC8)nc67)c(C(F)F)n5)CC4)CC3)c21 (stereo partly shown) [I-200] | < 10 | 50 to 100 | 
27 | CC[C@@H]1CC(=O)N[C@@H]1COc1ncc(C#C[C@H]2CC[C@@H](CN(C)CCCOCCCc3cccc4c3n(C)c(=O)n4C3CCC(=O)NC3=O)CC2)c2cc(C(N)=O)c(OC)cc12 (stereo partly shown) [I-201] | > 1000 | > 1000 | 100 to 1000
28 | CC[C@@H]1CC(=O)N[C@@H]1COc1ncc(C#C[C@H]2CC[C@@H](CN3CCC(OCCCc4cccc5c4n(C)c(=O)n5C4CCC(=O)NC4=O)CC3)CC2)c2cc(C(N)=O)c(OC)cc12 (stereo partly shown) [I-202] | 100 to 1000 | > 1000 | 10 to 100
29 | CC[C@@H]1CC(=O)N[C@@H]1COc1ncc(C#CC2CCN(CCCOCCCc3cccc4c3n(C)c(=O)n4C3CCC(=O)NC3=O)CC2)c2cc(C(N)=O)c(OC)cc12 (stereo partly shown) [I-203] | > 1000 | > 1000 | 100 to 1000
30 | CC[C@@H]1[C@H](F)C(=O)N[C@@H]1COc1ncc(C#CC2CCN(CCCOCCCc3cccc4c3n(C)c(=O)n4C3CCC(=O)NC3=O)CC2)c2cc(C(N)=O)c(OC)cc12 (stereo partly shown) [I-204] | 100 to 1000 | > 1000 | 10 to 100
31 | CC[C@H]1C(COc2ncc(C#C[C@H]3CC[C@H](CN4CCC(OCCCc5cccc6c5c5cccnc5n6C5CCC(=O)NC5=O)CC4)CC3)c3cc(C(N)=O)c(OC)cc23)NC(=O)[C@H]1F (stereo partly shown) [I-205] | 100 to 1000 | > 1000 | 10 to 100
32 | CC[C@@H]1[C@H](F)C(=O)N[C@@H]1COc1ncc(C#C[C@H]2CC[C@H](CN3CCC(OCCC#Cc4ccc([C@H]5CN(C6CCC(=O)NC6=O)C(=O)O5)cc4)CC3)CC2)c2cc(C(N)=O)c(OC)cc12 (stereo partly shown) [I-206] | 10 to 100 | > 1000 | 10 to 100
33 | O=C1CCC(N2C(=O)c3cccc(CCCOC4CCN(C[C@H]5CC[C@H](n6cc(NC(=O)c7cnn8ccc(N9CCOCC9)nc78)c(C(F)F)n6)CC5)CC4)c3C2=O)C(=O)N1 (stereo partly shown) [I-207] | 10 to 100 | > 1000 | 
34 | O=C1CCC(N2C(=O)c3cccc(OCCCOC4CCN(C[C@H]5CC[C@H](n6cc(NC(=O)c7cnn8ccc(N9CCOCC9)nc78)c(C(F)F)n6)CC5)CC4)c3C2=O)C(=O)N1 (stereo partly shown) [I-209] | 10 to 100 | > 1000 | < 10
